In the supplement of paper PMC10307832:

Experiments:
Assay in all cases: relative viability (nuclei count vs DMSO), 5 days (fraction); higher = more cells survive
[1] = compound: CCc1cnn2c(NCc3ccc[n+]([O-])c3)cc(N3CCCC[C@H]3CCO)nc12 [Dinaciclib] + COc1cc2c(Oc3ccc(NC(=O)C4(C(=O)Nc5ccc(F)cc5)CC4)cc3F)ccnc2cc1OCCCN1CCOCC1 [Foretinib] (partner 0.25 µM)
How it was run: (§1)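 Each reported value is a median over duplicate plates. It expresses relative viability: treated-well nuclei count divided by vehicle-well nuclei count. Lung cancer cell lines in 1536-well plates were dosed by pin tool a day after seeding, alone with one drug or with a fixed anchor-drug dose plus five library-drug doses (not always all listed) in √10 steps, and nuclei were counted after 5 days.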

[2] = compound: CCc1cnn2c(NCc3ccc[n+]([O-])c3)cc(N3CCCC[C@H]3CCO)nc12 [Dinaciclib] + COc1cccc2cc(-c3nc([C@H]4CC[C@H](C(=O)O)CC4)n4ncnc(N)c34)[nH]c12 [OSI-027] (partner 0.5 µM)
How it was run: as §1

[3] = compound: CCc1cnn2c(NCc3ccc[n+]([O-])c3)cc(N3CCCC[C@H]3CCO)nc12 [Dinaciclib] + Cc1nc(NC(=O)N2CCC[C@H]2C(N)=O)sc1-c1ccnc(C(C)(C)C(F)(F)F)c1 [Alpelisib] (partner 2 µM)
How it was run: as §1

[4] = compound: CCc1cnn2c(NCc3ccc[n+]([O-])c3)cc(N3CCCC[C@H]3CCO)nc12 [Dinaciclib] + CCNC(=O)c1noc(-c2cc(C(C)C)c(O)cc2O)c1-c1ccc(CN2CCOCC2)cc1 [Luminespib] (partner 0.01 µM)
How it was run: as §1

[5] = compound: CCc1cnn2c(NCc3ccc[n+]([O-])c3)cc(N3CCCC[C@H]3CCO)nc12 [Dinaciclib] + Nc1ncn([C@H]2C[C@H](O)[C@@H](CO)O2)c(=O)n1 [Decitabine] (partner 2 µM)
How it was run: as §1

Cell Line	relative viability ([1]; first compound 0.009487 µM)	relative viability ([1]; first compound 0.03 µM)	relative viability ([1]; first compound 0.09487 µM)	relative viability ([1]; first compound 0.3 µM)	relative viability ([2]; first compound 0.009487 µM)	relative viability ([2]; first compound 0.03 µM)	relative viability ([2]; first compound 0.09487 µM)	relative viability ([2]; first compound 0.3 µM)	relative viability ([3]; first compound 0.009487 µM)	relative viability ([3]; first compound 0.03 µM)	relative viability ([3]; first compound 0.09487 µM)	relative viability ([3]; first compound 0.3 µM)	relative viability ([4]; first compound 0.009487 µM)	relative viability ([4]; first compound 0.03 µM)	relative viability ([4]; first compound 0.09487 µM)	relative viability ([4]; first compound 0.3 µM)	relative viability ([5]; first compound 0.009487 µM)	relative viability ([5]; first compound 0.03 µM)	relative viability ([5]; first compound 0.09487 µM)	relative viability ([5]; first compound 0.3 µM)
CAL-12T	1.07	0.105	0.13	0.116	0.235	0.136	0.118	0.124	0.443	0.128	0.0835	0.115	0.133	0.085	0.0815	0.0961				
NCI-H1792					0.729	0.539	0.36	0.174	0.732	0.289	0.118	0.0656	0.422	0.225	0.117	0.0889	0.522	0.373	0.0508	0.0591
HCC-366	0.851	0.0324	0.042	0.0348	0.924	0.0747	0.0323	0.0369	0.366	0.0443	0.0165	0.0153					0.237	0.133	0.0321	0.0394
HCC-44					0.286	0.208	0.159	0.17	0.677	0.095	0.133	0.118	0.61	0.2	0.179	0.17	0.804	0.406	0.344	0.317
NCI-H1703	0.39	0.319	0.144	0.12					0.419	0.119	0.0849	0.115								
NCI-H1650	1.1	0.336	0.167	0.14	0.426	0.15	0.136	0.123					0.226	0.204	0.158	0.172	0.472	0.258	0.135	0.12
HCC-78	0.613	0.386	0.174	0.18	0.349	0.347	0.205	0.193	0.298	0.202	0.115	0.118					0.612	0.32	0.206	0.205
NCI-H2342	0.998	0.739	0.273	0.274	0.559	0.532	0.32	0.315					0.715	0.511	0.27	0.255	0.78	0.583	0.269	0.284
NCI-H522					0.76	0.517	0.439	0.382					1.2	0.653	0.465	0.276	0.688	0.65	0.347	0.326
NCI-H2228	0.87	0.36	0.104	0.11	0.522	0.167	0.0767	0.124	0.548	0.122	0.108	0.119	0.147	0.127	0.116	0.0939				
